Laboratory results published in patent US20220040255A1, “CHEMOTHERAPEUTIC REMODELING OF THE GUT MICROBIOME” (THE SCRIPPS RESEARCH INSTITUTE, priority 2018, published 2022).
Where a SMILES comes first, the peptide text is derived from it. [ ]: non-standard residue; d: D form.

Key:
[1] = tested on: gut microbiota; assay: in vivo remodeling of the gut microbiome (feces 16S rRNA sequencing); design: species or system LDLr−/− mice; conditions: for overall microbiota alpha diversity: in vivo, 10-week study, peptide treatment; for time within which the Bacteroidetes/Firmicutes ratio increased relative to the vehicle WD-fed group: oral in drinking water, ~35 mg/kg/day, WD-fed LDLr−/− mice
Procedure: (§1) Animals and diets. LDL receptor-null (LDLr^−/−) mice on a C57BL/6J background were initially purchased from Jackson Laboratories (Bar Harbor, Me.) and were bred in house. Unless otherwise noted, all experiments were performed with 8-12 weeks old LDLr^−/− female mice. For studies involving analysis of the gut microbiome, the mice were rotated between cages and co-housed with the mice from different groups for at least one week before the beginning of each study to reduce the variation in the composition of gut microbiome caused by the housing environment. The mice were weaned at 4 weeks of age and were fed ad libitum a standard chow diet (Harlan Teklad 7019) until they were 10-weeks old, when they were switched to a high-fat diet (WD) containing 15.8% (wt/wt) fat, 1.25% (wt/wt) cholesterol, and no cholate (Harlan Teklad 94059). At the time that the WD was started, the cyclic peptide was added to the drinking water at a dose of 180 μM and the mice (female, n=8 per dosing group) were continued on WD for 10 weeks. The lyophilized peptide was dissolved in PBS (pH 7.4) containing 1% sucrose, resulting in a clear solution. The drinking water solution was replaced with fresh solution daily for c[wLwReQeR] (SEQ ID NO:11) or every other day for c[wLwKhShK] (SEQ ID NO:1). A control group of eight mice (female, n=8) was fed WD and provided vehicle (PBS with 1% sucrose) drinking water. The mice consumed approximately 4.0 mL of water per day per mouse, and there was no significant difference in water or food consumption between groups. All procedures involving live animals were approved by the Scripps Research Institute Institutional Animal Care and Use Committee.
Feces sample collection and DNA extraction. The feces samples were freshly collected after 2, 6, and 10 weeks of treatment, snap-frozen, and stored at −80° C. Microbial genomic DNA was isolated with PowerSoil DNA isolation kit by following manufacturer's instructions (Mo Bio).
16S rRNA gene sequencing and processing. PCR amplicons of the V3-V4 16S rRNA region were amplified and sequenced using an Illumina MiSeq platform. For each sample, duplicate 25 μl PCR reactions were performed, each containing 50 ng of purified DNA, 12.5 μl 2×KAPA HiFi HotStart ReadyMix (Kapa biosystem), and 0.15 μM of each primer designed to amplify the V3-V4 region:
16S rRNA gene sequencing data analysis. We used custom python scripts to demultiplex sequencing reads based on the second barcode index and remove PCR duplication artifacts found using unique molecular identifiers prior to analyzing sequences using MOTHUR (version 1.36.1). […] Briefly, contigs were generated by combining forward and reverse paired-end reads. […] We performed a pre-clustering step to cluster reads up to 2 bp apart and removed all chimeric sequences. […]

[2] = plasma cholesterol and lipoprotein profile; assay type: in vivo, LDLr−/− mice; conditions: for reduction in cholesterol in the CHD mice: CHD-fed mice; for HDL-cholesterol levels / levels of VLDL and LDL / reduction of plasma total cholesterol compared to the untreated WD group: WD; for HDL-cholesterol levels / levels of VLDL and LDL: peptide-treated animals; for reduction of plasma total cholesterol compared to the untreated WD group: two-week time point, oral administration
Procedure: as §1
Measurement of plasma cholesterol and liver enzyme activities. The mice were bled after an overnight fast after 2 and 10 weeks of treatment. The plasma samples were used to determine lipoprotein profiles and the levels of cholesterol, alanine aminotransferase (ALT), and aspartate aminotransferase (AST). Measurements of plasma levels of cholesterol, ALT, and AST were performed as described in Zhao et al., ACS Cent. Sci. 3, 639-646, 2017. Briefly, plasma was separated from whole blood immediately by centrifugation of the blood samples at 5,000 rpm for 10 min at 4° C., and was then stored at −80° C. Plasma total cholesterol was measured using an enzymatic fluorometric method kit (Amplex® red cholesterol assay kit, No. A12216, Life Technologies) according to the manufacturer's instructions. Plasma ALT and AST concentrations were measured using Infinity ALT (GPT) and AST (GOT) liquid stable assays, respectively, which are colorimetric kinetic assays (Thermo Scientific). Assays were performed in accordance with the manufacturer's recommendations, adjusting the reagent volumes (20 μL plasma+200 μL reagent, 0.69 cm light pathlength of the solution in the well) for analysis of samples in 96-well flat-bottom microplate format.
Plasma lipoprotein profile. Pooled plasma (240 μL total, 30 μL from each, n=8 fasted mice per group) from the two-week blood draw was used for fast protein liquid chromatography (FPLC) analysis. Lipoproteins were separated by using 3 Superdex 200 10/30 columns connected in series (GE Healthcare). The plasma was centrifuged at 11,000 rpm for 10 min at room temperature to remove particulates (floating material was gently mixed into liquid before removing the supernatant for FPLC injection). 200 μL of the pooled plasma was injected on the system eluted with 10 mM tris-HCl buffer, pH 7.4, containing 1 mM EDTA and 150 mM NaCl; a flow rate of 0.5 ml/min and fraction size of 0.5 mL were used.

[3] = tested on: total bile acid; assay: bulk (total) bile acid quantification; assay type: in vivo, LDLr−/− mice; conditions: 2-wk treatment
Procedure: Bulk bile acid quantification. Total bile acids were measured enzymatically using a total bile acid assay kit (Cell Biolabs) following manufacturer's instruction. Feces were obtained between 0900-1100 am from non-fasted animals after a 2-wk treatment period. The extraction of bile acid from feces was performed as described in Yu et al., J. Biol. Chem. 275, 15482-15489, 2000. In brief, the feces from individual mice were collected, weighed, and agitated in 75% ethanol in an ultrasonic bath at 50° C. for 2 h. After centrifugation at 3,500 g for 10 min, the supernatant was transferred to a new tube and diluted with 25% PBS. The total bile acid level was then determined enzymatically using the kit. For plasma samples, the plasma was diluted 1:10 with 25% PBS prior to enzymatic bile acid measurement using the kit.

Row | SMILES | overall microbiota alpha diversity [1] | time within which the Bacteroidetes/Firmicutes ratio increased relative to the vehicle WD-fed group [1] [weeks] | reduction in cholesterol in the CHD mice [2] | HDL-cholesterol levels [2] | levels of VLDL and LDL [2] | reduction of plasma total cholesterol compared to the untreated WD group [2] [%] | total bile acid in the feces, peptide-treated vs. control WD-fed mice ([3]; feces) | total bile acid in the plasma, peptide-treated vs. control WD-fed mice ([3]; plasma)
1 | CC(C)C[C@@H]1NC(=O)[C@@H](Cc2c[nH]c3ccccc23)NC(=O)[C@H](CCCCN)NC(=O)[C@@H](Cc2c[nH]cn2)NC(=O)[C@H](CO)NC(=O)[C@@H](Cc2c[nH]cn2)NC(=O)[C@H](CCCCN)NC(=O)[C@@H](Cc2c[nH]c3ccccc23)NC1=O [c[wLwKhShK]] (cyclo([dW]L[dW]K[dH]S[dH]K)) | unchanged | ≤ 2 | no analogous peptide-mediated reduction | higher | marked reduction | 37 |  | 
2 | CC(C)C[C@@H]1NC(=O)[C@@H](Cc2c[nH]c3ccccc23)NC(=O)[C@H](CCCNC(=N)N)NC(=O)[C@@H](CCC(=O)O)NC(=O)[C@H](CCC(N)=O)NC(=O)[C@@H](CCC(=O)O)NC(=O)[C@H](CCCNC(=N)N)NC(=O)[C@@H](Cc2c[nH]c3ccccc23)NC1=O [c[wLwReQeR]] (cyclo([dW]L[dW]R[dE]Q[dE]R)) | unchanged | ≤ 6 | no analogous peptide-mediated reduction | higher | marked reduction | 36 | two-fold higher | three-fold lower
